Where a SMILES comes first, the peptide text is derived from it. Where no end group is shown, it is not given here.
How the values were obtained:
[1] = test system: human normal colon epithelial cells (NCM-460); format: cell-based; details: 48 h
Procedure: Human normal colon epithelial cells (NCM‐460) were purchased from the BeNa Culture Collection. Cytotoxicity was measured using the 3‐[4,5‐dimethylthiazol‐2‐yl]−2,5 diphenyl tetrazolium bromide (MTT) assay. The NCM‐460 cells were cultured in the Dulbecco's modified Eagle's medium (DMEM)‐H complete culture medium (90% DMEM‐H, 10% FBS, 10,000 U/mL penicillin, and 10,000 μg/mL streptomycin) to logarithmic growth phase. The suspension of cells was prepared at 10^5 cells/100 μL/well in a 96‐well plate. The peptides selected for the assay were dissolved in the DMEM‐H medium to prepare a 25 mg/mL stock solution, diluted for multiple gradients of 4–512 μg/mL. Afterwards, the peptides that had been diluted (100 μL/well) were introduced into the cells residing on a 96‐well plate. The DMEM‐H medium served as the blank group, the cell suspension as the control group, and the cell suspension combined with the peptide as the experimental group. Each group was conducted in three separate replicates. After 48 h of culture, 10 μL MTT was added to each well and incubated further at 37°C for 4 h. Then 100 μL Formazan solution was added and incubated further at 37°C for 4 h until all the purple crystals were dissolved. The absorbances were measured at OD570. Cell viability was determined by calculating cell viability using the following formula. Cell viability=OD570(experimental)−OD570(blank)/OD570(control)−OD570(blank)×100%.
Then, the CC50 value of each AMP molecule was calculated using an online tool: https://www.aatbio.com/tools/ic50-calculator.

sheep red blood cells = details: red cells of sheep, 1 h
Procedure: Freshly collected sheep blood was centrifuged at 3000 rpm for 10 min, and the supernatant was removed. The pellet was washed and resuspended with normal saline water to produce a 2% blood cell solution. Then, 400 μL of peptide solution was added to 100 μL of 2% blood cell solution to achieve final peptide concentrations of 8, 16, 32, 64, and 128 μg/mL. Normal saline water and Triton X‐100 normal saline solution (2%) were used as negative and positive controls, respectively. The samples were incubated in a water bath at 37°C for 1 h, followed by centrifugation at 3000 rpm for 10 min. Then, 200 μL of the supernatant was transferred to a 96‐well plate, and OD values were measured at a wavelength of 545 nm. The hemolysis rate of each sample was calculated using the following formula: Hemolysis ratio=OD545(experimental)−OD545(negative control)/OD545(positive control)−OD545(negative control)×100%.

[2] = test system: Micrococcus luteus ATCC 4698; test: Antibacterial screen at 200 μg/mL (cell density vs control); format: cell-based; details: peptide 200 μg/mL, CAMHB, 5 × 10^5 CFU/mL, 37°C, 12 h, OD600; control (no AMP) = 1; three biological replicates
Method in brief: (§1)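 CAMHB, 37°C; inoculum 5 × 10^5 CFU/mL from log phase; peptide 200 μg/mL final; 12 h; OD600 read, blank- and peptide-background-subtracted; n = 3, t-test vs untreated growth control. MIC = lowest peptide concentration with no visible growth.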

[3] = test system: Bacillus subtilis ATCC 23857; test: as above; format: cell-based; details: peptide 200 μg/mL, CAMHB, 5 × 10^5 CFU/mL, 37°C, 12 h, OD600; control (no AMP) = 1; three biological replicates
Method in brief: as §1

[4] = test system: Staphylococcus aureus ATCC 12600; test: as above; format: cell-based; details: peptide 200 μg/mL, CAMHB, 5 × 10^5 CFU/mL, 37°C, 12 h, OD600; control (no AMP) = 1; three biological replicates
Method in brief: as §1

[5] = test system: Salmonella bongori ATCC 43975; test: as above; format: cell-based; details: peptide 200 μg/mL, CAMHB, 5 × 10^5 CFU/mL, 37°C, 12 h, OD600; control (no AMP) = 1; three biological replicates
Method in brief: as §1

[6] = test system: Acinetobacter baumannii ATCC 19606; test: as above; format: cell-based; details: peptide 200 μg/mL, CAMHB, 5 × 10^5 CFU/mL, 37°C, 12 h, OD600; control (no AMP) = 1; three biological replicates
Method in brief: as §1

[7] = test system: Vibrio alginolyticus xv22; test: as above; format: cell-based; details: peptide 200 μg/mL, CAMHB, 5 × 10^5 CFU/mL, 37°C, 12 h, OD600; control (no AMP) = 1; three biological replicates
Method in brief: as §1

Vibrio owensii ems001 = test: as above; format: cell-based; details: peptide 200 μg/mL, CAMHB, 5 × 10^5 CFU/mL, 37°C, 12 h, OD600; control (no AMP) = 1; three biological replicates
Method in brief: as §1

[8] = test system: Escherichia coli ATCC 11775; test: as above; format: cell-based; details: peptide 200 μg/mL, CAMHB, 5 × 10^5 CFU/mL, 37°C, 12 h, OD600; control (no AMP) = 1; three biological replicates
Method in brief: as §1

CSCC[C@H](N)C(=O)N[C@@H](CCCCN)C(=O)N1CCC[C@H]1C(=O)N[C@@H](CS)C(=O)N[C@@H](CCCNC(=N)N)C(=O)N[C@@H](CCCCN)C(=O)N[C@@H](C)C(=O)N[C@@H](CC(C)C)C(=O)N[C@@H](Cc1c[nH]c2ccccc12)C(=O)N[C@@H](CO)C(=O)N[C@H](C(=O)N[C@@H](Cc1c[nH]c2ccccc12)C(=O)N[C@@H](CCCCN)C(=O)N[C@@H](CCCNC(=N)N)C(=O)N[C@@H](CCCCN)C(=O)N[C@@H](CS)C(=O)N[C@@H](CCCNC(=N)N)C(=O)N[C@@H](Cc1c[nH]cn1)C(=O)N[C@@H](CCC(=O)O)C(=O)O)C(C)C [Cand-196] (H-MKPCRKALWSVWKRKCRHE-OH)
Cytotoxicity CC50 [1]: 18.881 µg/mL
Hemolysis ratio (%) at 8μg/mL (sheep red blood cells): 1.481%
Hemolysis ratio (%) at 16μg/mL (sheep red blood cells): 2.356%
Hemolysis ratio (%) at 32μg/mL (sheep red blood cells): 4.680%
Hemolysis ratio (%) at 64μg/mL (sheep red blood cells): 5.976%
Hemolysis ratio (%) at 128μg/mL (sheep red blood cells): 13.102%

MRCSLKKIISTFFS [Cand-71]
Cytotoxicity CC50 [1]: 23.841 µg/mL
Hemolysis ratio (%) at 8μg/mL (sheep red blood cells): 6.779%
Hemolysis ratio (%) at 16μg/mL (sheep red blood cells): 7.213%
Hemolysis ratio (%) at 32μg/mL (sheep red blood cells): 15.000%
Hemolysis ratio (%) at 128μg/mL (sheep red blood cells): 19.534%

MRIVMCRIGGRL [Cand-102]
Cytotoxicity CC50 [1]: 5.897 µg/mL
Hemolysis ratio (%) at 8μg/mL (sheep red blood cells): 6.842%
Hemolysis ratio (%) at 16μg/mL (sheep red blood cells): 37.647%
Hemolysis ratio (%) at 32μg/mL (sheep red blood cells): 54.569%
Hemolysis ratio (%) at 128μg/mL (sheep red blood cells): 41.034%

MSCDLQKVRGCLPRLIVHK [Cand-142, chemically synthesized candidate AMP predicted from marine biofilm bacteria]
cell density relative to control, M. luteus ATCC 4698 [2]: 1
cell density relative to control, B. subtilis ATCC 23857 [3]: 1
cell density relative to control, S. aureus ATCC 12600 [4]: 0.941
cell density relative to control, S. bongori ATCC 43975 [5]: 0.989
cell density relative to control, A. baumannii ATCC 19606 [6]: 1
cell density relative to control, V. alginolyticus xv22 [7]: 1
cell density relative to control, V. owensii ems001 (Vibrio owensii ems001): 1
cell density relative to control, E. coli ATCC 11775 [8]: 1

MSKIKAKIGHLR [Cand-98, chemically synthesized candidate AMP predicted from marine biofilm bacteria]
cell density relative to control, M. luteus ATCC 4698 [2]: 1
cell density relative to control, B. subtilis ATCC 23857 [3]: 1
cell density relative to control, S. aureus ATCC 12600 [4]: 0.721
cell density relative to control, S. bongori ATCC 43975 [5]: 1
cell density relative to control, A. baumannii ATCC 19606 [6]: 0.74
cell density relative to control, V. alginolyticus xv22 [7]: 1
cell density relative to control, V. owensii ems001 (Vibrio owensii ems001): 1
cell density relative to control, E. coli ATCC 11775 [8]: 0.765

MSPRICSVISCLMKLRC [Cand-11, chemically synthesized candidate AMP predicted from marine biofilm bacteria]
cell density relative to control, M. luteus ATCC 4698 [2]: 0.931
cell density relative to control, B. subtilis ATCC 23857 [3]: 1
cell density relative to control, S. aureus ATCC 12600 [4]: 0.019
cell density relative to control, S. bongori ATCC 43975 [5]: 0.522
cell density relative to control, A. baumannii ATCC 19606 [6]: 0.023
cell density relative to control, V. alginolyticus xv22 [7]: 0.018
cell density relative to control, V. owensii ems001 (Vibrio owensii ems001): 0.023
cell density relative to control, E. coli ATCC 11775 [8]: 0.967

MTWPSRSRMWRTC [Cand-129, chemically synthesized candidate AMP predicted from marine biofilm bacteria]
cell density relative to control, M. luteus ATCC 4698 [2]: 0.751
cell density relative to control, B. subtilis ATCC 23857 [3]: 0.061
cell density relative to control, S. aureus ATCC 12600 [4]: 0.012
cell density relative to control, S. bongori ATCC 43975 [5]: 0.704
cell density relative to control, A. baumannii ATCC 19606 [6]: 1
cell density relative to control, V. alginolyticus xv22 [7]: 0.004
cell density relative to control, V. owensii ems001 (Vibrio owensii ems001): 0.021
cell density relative to control, E. coli ATCC 11775 [8]: 0.692

MVAVMKKLLLKYALK [Cand-82]
Cytotoxicity CC50 [1]: 10.864 µg/mL
Hemolysis ratio (%) at 8μg/mL (sheep red blood cells): 2.395%
Hemolysis ratio (%) at 16μg/mL (sheep red blood cells): 3.214%
Hemolysis ratio (%) at 32μg/mL (sheep red blood cells): 3.498%
Hemolysis ratio (%) at 64μg/mL (sheep red blood cells): 2.486%
